Laboratory results published in US4518581A, “Imparting low- or anti-cariogenic property to orally-usable products” (Kabushiki Kaisha Hayashibara Seibutsu Kagaku Kenkyujo, priority 1981, dated 1985).

Columns and labels:
[1] = biological target: T1, water-insoluble glucan producing enzyme (Streptococcus downei, UniProt P27470); assay: Effect of saccharides on formation of water-insoluble glucan from sucrose (Experiment 3); format: biochemical, Streptococcus mutans 6715 strain; conditions: saccharide reduced to 10% against sucrose: 1 ml 4 w/v % sucrose plus 1 ml 0.4 w/v % saccharide, 37° C., 16 hours
T1 construct: to the supernatant was added with ammonium sulfate to give 60% saturation; endogenous in cells; host or cells: Streptococcus mutans 6715 strain (today S. sobrinus), culture supernatant, ammonium sulfate precipitate, dialyzed

[2] = biological target: T1, water-insoluble glucan producing enzyme; assay: as above; format: biochemical, Streptococcus mutans 6715 strain; conditions: 1 ml 4 w/v % sucrose plus 1 ml 4 w/v % saccharide, 0.02 units enzyme, 37° C., 16 hours; for A: amounts of water-insoluble glucan formed: sucrose control 300
Protocol: After completion of the cultivation, the culture was separated into cell precipitant and supernatant. Thereafter, to the supernatant was added with ammonium sulfate to give 60% saturation, and the resultant precipitant was dialyzed against 0.1M phosphate buffer (pH 7.2) to obtain an aqueous solution containing the enzyme.
The titers of the enzyme were assayed as follows: A mixture solution, consisting of 1 ml of 0.2M aqueous sucrose solution, 1 ml of water, 1 ml of 0.1M phosphate buffer containing 0.05 w/v % NaN3, and 0.5 ml of the enzyme solution (below 0.05 units), is incubated at 37° C. for 9 hours, followed by centrifugation of the reaction mixture. The resultant precipitant is mixed with 4 ml of 0.5N sodium hydroxide solution, and then incubated at this temperature for an additional one hour to dissolve the precipitant. The amount of water-insoluble glucan formed during the enzymatic reaction is then measured. One unit of the enzyme is defined as the amount of enzyme that transfers 1 μmole glucose from sucrose to the water-insoluble glucan in one minute.
Effects of some saccharides on the formation of water-insoluble glucan were tested: Water-insoluble glucan formation and inhibition thereof were determined according to the enzyme assay method as described in EXPERIMENT 1, except that the mixture solution contained sucrose, or sucrose and each saccharide as listed in TABLE I. The experiment was carried out as follows: A mixture solution, consisting of 1 ml of 4 w/v % aqueous sucrose solution, 1 ml of 4 w/v % aqueous solution of each saccharide as listed in TABLE I, 1.5 ml of 0.1M phosphate buffer containing 0.05 w/v % NaN3, and 0.5 ml of the enzyme solution (0.02 units), was incubated at 37° C. for 16 hours, and the water-insoluble glucan formation in the reaction mixture was determined according to the enzyme assy method.
In a control experiment, 1 ml of the above described saccharide solution was replaced with the same amount of water.
The inhibition degree was calculated with following equation:
Inhibition degree (%)=100-A/B×100
where A and B are respective amounts of the water-insoluble glucan formed (μg/ml) when the mixture solution contained sucrose or sucrose and each of the saccharides.

[3] = tested on: Streptococcus mutans 6715 strain; assay: Organic acid formation from saccharides by Streptococcus mutans cells, pH-measurement (Experiment 4); format: cell-based; conditions: 37° C., 30 minutes; for organic acid formation from the saccharide: Streptococcus mutans 6715 cells; for pH-Level of the reaction mixture (organic acid formation): cell suspension, Stephan's buffer (pH 7.0), saccharide solution
Protocol: Organic acid formation from some saccharides by Streptococcus mutans was tested: Streptococcus mutans 6715 strain was cultivaed similarly as in EXPERIMENT 1, and the cells, obtained by centrifuging the culture, were washed with 0.9 w/v % sodium chloride solution, followed by additional centrifugation. Two ml of a mixture solution, consisting of 0.2 ml of the cell suspension, prepared from about 100 ml of the culture, 1.5 ml of Stephan's buffer, and 0.3 ml aqueous solution of each saccharide as listed in TABLE II, was incubated at 37° C. for 30 minutes, followed by pH-measurement of the reaction mixture. The Stephan's buffer was prepared by the method as reported by R. M. Stephan et al., Journal of Dental Research, Vol.26, pp.15-41 (1947): One ml of Solution I, prepared by dissolving 17.89 g Na2 HPO4. 12H2 O, 7.92 g KOH and 6.81 g KH2 PO4 in water to give a final volume of 100 ml, was placed in a 100-ml volumetric flask, and mixed with about 90 ml of water. To the flask was added 1 ml of Solution II, prepared by dissolving 4.54 g KH2 PO4, 0.32 g MgSO4.7H2 O, 0.57 g CaSO4.2H2 O and 10 ml of 3.5% hydrochloric acid solution in water to give a final volume of 100 ml. This mixture was diluted with additional water to obtain 100 ml of Stephan's buffer (pH 7.0).
The results are given in TABLE II, wherein the organic acid formation from the saccharides can be estimated by the pH-values.

T1 sequence (P27470 39-1592): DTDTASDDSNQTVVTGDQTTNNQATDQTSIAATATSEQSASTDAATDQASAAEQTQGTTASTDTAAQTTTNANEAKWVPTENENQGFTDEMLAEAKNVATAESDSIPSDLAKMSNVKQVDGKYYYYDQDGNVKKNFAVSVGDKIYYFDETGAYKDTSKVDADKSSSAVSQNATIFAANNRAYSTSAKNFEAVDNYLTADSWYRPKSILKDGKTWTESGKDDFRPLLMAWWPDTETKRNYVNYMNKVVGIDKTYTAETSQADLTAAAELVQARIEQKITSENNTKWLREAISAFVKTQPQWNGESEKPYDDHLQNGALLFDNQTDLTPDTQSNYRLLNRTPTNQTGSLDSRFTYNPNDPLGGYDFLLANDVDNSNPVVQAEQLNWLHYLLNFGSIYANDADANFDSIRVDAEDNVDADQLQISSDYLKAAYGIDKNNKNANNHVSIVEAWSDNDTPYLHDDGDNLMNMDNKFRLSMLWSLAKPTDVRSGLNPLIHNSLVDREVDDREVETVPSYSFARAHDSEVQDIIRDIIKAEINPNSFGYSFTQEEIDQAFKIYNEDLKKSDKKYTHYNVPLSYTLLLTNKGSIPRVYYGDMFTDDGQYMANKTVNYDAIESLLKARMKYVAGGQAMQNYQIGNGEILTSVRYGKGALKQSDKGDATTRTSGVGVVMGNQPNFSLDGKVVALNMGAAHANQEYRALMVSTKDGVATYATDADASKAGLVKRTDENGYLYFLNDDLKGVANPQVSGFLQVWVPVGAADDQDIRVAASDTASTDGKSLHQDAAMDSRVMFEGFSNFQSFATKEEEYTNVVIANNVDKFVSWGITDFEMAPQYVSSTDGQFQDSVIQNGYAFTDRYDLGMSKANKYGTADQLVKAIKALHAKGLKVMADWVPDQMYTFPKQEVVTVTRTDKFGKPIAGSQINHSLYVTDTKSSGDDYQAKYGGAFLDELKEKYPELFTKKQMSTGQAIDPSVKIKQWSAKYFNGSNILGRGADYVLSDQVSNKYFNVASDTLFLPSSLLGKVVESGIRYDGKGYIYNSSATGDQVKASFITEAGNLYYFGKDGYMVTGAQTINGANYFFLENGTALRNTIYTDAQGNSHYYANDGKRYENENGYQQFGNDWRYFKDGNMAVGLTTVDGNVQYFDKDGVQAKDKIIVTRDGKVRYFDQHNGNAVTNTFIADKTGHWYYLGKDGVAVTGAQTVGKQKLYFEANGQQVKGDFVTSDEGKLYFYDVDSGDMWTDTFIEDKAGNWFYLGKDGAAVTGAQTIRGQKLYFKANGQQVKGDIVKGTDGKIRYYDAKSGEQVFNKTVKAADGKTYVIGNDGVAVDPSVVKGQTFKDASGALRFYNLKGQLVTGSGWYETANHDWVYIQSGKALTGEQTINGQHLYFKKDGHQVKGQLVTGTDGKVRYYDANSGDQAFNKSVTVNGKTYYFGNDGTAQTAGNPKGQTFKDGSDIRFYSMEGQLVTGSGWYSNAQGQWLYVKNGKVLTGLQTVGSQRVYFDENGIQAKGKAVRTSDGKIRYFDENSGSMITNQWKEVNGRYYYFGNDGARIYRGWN

Question: Which results are given for `OC[C@H]1O[C@H](OC[C@H]2O[C@H](OC[C@H]3O[C@H](OC[C@H]4OC(O)[C@H](O)[C@@H](O)[C@@H]4O)[C@H](O)[C@@H](O)[C@@H]3O)[C@H](O)[C@@H](O)[C@@H]2O)[C@H](O)[C@@H](O)[C@@H]1O` (stereo partly drawn) [Isomaltotetraose, 6^2 -O-α-isomaltosyl isomaltose]?
Answer: C: inhibition degree of water-insoluble glucan formation [1]: 58%; C: inhibition degree of water-insoluble glucan formation ([1]; listed as isomaltotetraose): 45-60%; A: amounts of water-insoluble glucan formed [2]: 18 µg/mL; organic acid formation from the saccharide [3]: no organic acid formation; pH-Level of the reaction mixture (organic acid formation) [3]: 7.0

Question: `OC[C@H]1O[C@H](OC[C@H]2O[C@H](O[C@H]3[C@H](O)[C@@H](O)C(O)O[C@@H]3CO)[C@H](O)[C@@H](O)[C@@H]2O)[C@H](O)[C@@H](O)[C@@H]1O` (stereo partly drawn) [Panose, 4-O-α-isomaltosyl glucose] was tested. Which “C: inhibition degree of water-insoluble glucan formation” value (shortened to “C: inhibition degree”) [1] did it give?
Answer: 47%

Question: What about the “C: inhibition degree” value ([1]; listed as panose) of the same compound?
Answer: 45-60%

Question: What about the “A: amounts of water-insoluble glucan formed” value (“A: amounts” for short) [2] of the same compound?
Answer: 48 µg/mL

Question: And the “organic acid formation from the saccharide” value [3]?
Answer: no organic acid formation

Question: And the “pH-Level of the reaction mixture (organic acid formation)” value (“pH-Level of the reaction mixture” for short) [3]?
Answer: 7.0

Question: With `O=C(CO)[C@@H](O)[C@H](O)[C@@H](O)CO` [L-Sorbose] as the compound, how does the “B: inhibition degree on water-insoluble glucan formation” value (shortened to “B: inhibition degree”) [2] read?
Answer: 13%

Question: And the “A: amounts” value [2]?
Answer: 261 µg/mL

Question: What about the “pH-Level of the reaction mixture” value [3] of the same compound?
Answer: 7.0

Question: Which “B: inhibition degree” value [2] does the source give for `OC[C@H]1O[C@@H](O[C@@H]2[C@@H](CO)OC(O)(CO)[C@H]2O)[C@H](O)[C@@H](O)[C@H]1O` (mixture of isomers) [Lactulose] here?
Answer: 12%

Question: And the “A: amounts” value [2]?
Answer: 264 µg/mL

Question: What about the “pH-Level of the reaction mixture” value [3] of the same compound?
Answer: 7.0

Question: Which results are given for `O=C(CO)[C@@H](O[C@H]1O[C@H](CO)[C@@H](O)[C@H](O)[C@H]1O)[C@H](O)[C@H](O)CO` [Turanose]?
Answer: B: inhibition degree on water-insoluble glucan formation [2]: 9%; A: amounts of water-insoluble glucan formed [2]: 273 µg/mL; pH-Level of the reaction mixture (organic acid formation) [3]: 7.0

Question: `OC[C@H]1O[C@@](CO)(OC[C@H]2O[C@@](CO)(O[C@H]3O[C@H](CO)[C@@H](O)[C@H](O)[C@H]3O)[C@@H](O)[C@@H]2O)[C@@H](O)[C@@H]1O` [6-Kestose] was tested. Which “B: inhibition degree” value [2] did it give?
Answer: 3%

Question: What about the “A: amounts” value [2] of the same compound?
Answer: 291 µg/mL

Question: And the “pH-Level of the reaction mixture” value [3]?
Answer: 6.8

Question: For `OC[C@@H](O)[C@@H](O)[C@H](O)[C@@H](O)CO` [Sorbitol], which “B: inhibition degree” value [2] is on record?
Answer: 8%

Question: What about the “A: amounts” value [2] of the same compound?
Answer: 290 µg/mL

Question: And the “pH-Level of the reaction mixture” value [3]?
Answer: 7.0

Question: Which “B: inhibition degree” value [2] does the source give for Inulobiose here?
Answer: 8%

Question: What about the “A: amounts” value [2] of the same compound?
Answer: 276 µg/mL

Question: What about the “pH-Level of the reaction mixture” value [3] of the same compound?
Answer: 4.5

Question: What does the source list for `OC[C@H]1OC(O)C[C@@H](O)[C@@H]1O` (stereo partly drawn) [2-Deoxy Glucose]?
Answer: B: inhibition degree on water-insoluble glucan formation [2]: 5%; A: amounts of water-insoluble glucan formed [2]: 285 µg/mL; pH-Level of the reaction mixture (organic acid formation) [3]: 7.0

Question: For `OC[C@H]1O[C@H](O[C@H]2[C@H](O)[C@@H](O)[C@@H](O[C@H]3[C@H](O)[C@@H](O)[C@@H](O[C@H]4[C@H](O)[C@@H](O)[C@@H](O[C@H]5[C@H](O)[C@@H](O)C(O)O[C@@H]5CO)O[C@@H]4CO)O[C@@H]3CO)O[C@@H]2CO)[C@H](O)[C@@H](O)[C@@H]1O` (stereo partly drawn) [Maltopentaose], which “B: inhibition degree” value [2] is on record?
Answer: 12%

Question: And the “A: amounts” value [2]?
Answer: 264 µg/mL

Question: What about the “pH-Level of the reaction mixture” value [3] of the same compound?
Answer: 5.6

Question: Which “A: amounts” value [2] does the source give for `OC[C@@H](O)[C@@H](O[C@H]1O[C@H](CO[C@H]2O[C@H](CO)[C@@H](O)[C@H](O)[C@H]2O)[C@@H](O)[C@H](O)[C@H]1O)[C@H](O)[C@@H](O)CO` [Pannitol, 4-O-α-isomaltosyl glucitol] here?
Answer: 70 µg/mL

Question: What about the “organic acid formation from the saccharide” value [3] of the same compound?
Answer: no organic acid formation

Question: What about the “pH-Level of the reaction mixture” value [3] of the same compound?
Answer: 7.0

Question: What does the source list for `OC[C@H](O)[C@@H](O)[C@H](O)[C@H](O)CO[C@H]1O[C@H](CO[C@H]2O[C@H](CO[C@H]3O[C@H](CO)[C@@H](O)[C@H](O)[C@H]3O)[C@@H](O)[C@H](O)[C@H]2O)[C@@H](O)[C@H](O)[C@H]1O` [Isomaltotetraitol, 6^2 -O-α-isomaltosyl isomaltitol]?
Answer: A: amounts of water-insoluble glucan formed [2]: 45 µg/mL; organic acid formation from the saccharide [3]: no organic acid formation; pH-Level of the reaction mixture (organic acid formation) [3]: 7.0

Question: How did the “B: inhibition degree” value [2] turn out when `OC[C@H]1O[C@H](O[C@H]2O[C@H](CO)[C@@H](O)[C@H](O)[C@H]2O)[C@H](O)[C@@H](O)[C@@H]1O` [Trehalose] was run?
Answer: 1%

Question: And the “A: amounts” value [2]?
Answer: 297 µg/mL

Question: What about the “pH-Level of the reaction mixture” value [3] of the same compound?
Answer: 7.0

Question: Which “B: inhibition degree” value [2] does the source give for `OC[C@H]1O[C@H](O[C@H]2[C@H](O)[C@@H](O)[C@@H](O[C@H]3[C@H](O)[C@@H](O)[C@@H](O[C@H]4[C@H](O)[C@@H](O)C(O)O[C@@H]4CO)O[C@@H]3CO)O[C@@H]2CO)[C@H](O)[C@@H](O)[C@@H]1O` (stereo partly drawn) [Maltotetraose] here?
Answer: 15%

Question: And the “A: amounts” value [2]?
Answer: 255 µg/mL

Question: What about the “pH-Level of the reaction mixture” value [3] of the same compound?
Answer: 5.3

Question: Which “C: inhibition degree” value [1] does the source give for `OC[C@H]1O[C@H](OC[C@H]2O[C@H](O[C@H]3[C@H](O)[C@@H](O)[C@@H](O[C@H]4[C@H](O)[C@@H](O)C(O)O[C@@H]4CO)O[C@@H]3CO)[C@H](O)[C@@H](O)[C@@H]2O)[C@H](O)[C@@H](O)[C@@H]1O` (stereo partly drawn) [Isomaltosyl maltose, 4^2 -O-α-isomaltosyl maltose] here?
Answer: 55%

Question: And the “C: inhibition degree” value ([1]; listed as isomaltosyl maltose)?
Answer: 45-60%

Question: What about the “A: amounts” value [2] of the same compound?
Answer: 24 µg/mL

Question: And the “organic acid formation from the saccharide” value [3]?
Answer: no organic acid formation

Question: What about the “pH-Level of the reaction mixture” value [3] of the same compound?
Answer: 7.0

Question: What does the source list for `OC[C@@H](O)[C@@H](O)[C@H](O)[C@H](O)CO` [Mannitol]?
Answer: B: inhibition degree on water-insoluble glucan formation [2]: 5%; A: amounts of water-insoluble glucan formed [2]: 286 µg/mL; pH-Level of the reaction mixture (organic acid formation) [3]: 7.0

Question: `OC1OC[C@H](O)[C@H](O)[C@H]1O` (stereo partly drawn) [L-Arabinose] was tested. Which “B: inhibition degree” value [2] did it give?
Answer: 2%

Question: And the “A: amounts” value [2]?
Answer: 294 µg/mL

Question: What about the “pH-Level of the reaction mixture” value [3] of the same compound?
Answer: 7.0

Question: `OC[C@H]1O[C@@](CO)(OC[C@H]2O[C@](O)(CO)[C@@H](O)[C@@H]2O)[C@@H](O)[C@@H]1O` [Levanbiose] was tested. Which “B: inhibition degree” value [2] did it give?
Answer: 4%

Question: And the “A: amounts” value [2]?
Answer: 288 µg/mL

Question: And the “pH-Level of the reaction mixture” value [3]?
Answer: 6.5
